This is an account of results in patent US20250018088A1, “COMPOSITIONS AND METHODS FOR REPAIRING DAMAGE TO SKELETAL MUSCLE” (MAYO FOUNDATION FOR MEDICAL EDUCATION AND RESEARCH, priority 2021, published 2025).

For experiment [1], the system named is Human Skeletal Muscle Myoblasts (HSMM). In words: Resveratrol inhibition of PEP-mediated HSMM proliferation. Format: cell-based. How it is done:
The mechanism of PEP-induced HSMM proliferation was interrogated using resveratrol (InvivoGen, San Diego, CA), an NF-κB inhibitor, in culture grown with 2.5×10^11 PEP exosomes/mL. The concentration of PEP exosomes was chosen both because of its optimal impact on the growth of cultured HSMMs and to match the empirically determined timed release PEP concentration from TISSEEL (Baxter International, Inc., Deerfield, IL) reconstituted with 1×10^12 PEP exosomes/mL. HSMM were plated on a 96-well plate at 10,000 cells/well overnight. Resveratrol was incubated at concentrations ranging from 50 μM to 500 μM for an hour before adding 2.5×10^11 PEP exosomes/mL to each well. Data is generated from live cell proliferation analysis (INCUCYTE, Essen BioScience, Inc., Ann Arbor, MI) by acquiring phase images (10× lens; five images/well in 96-well plate with three wells/condition). Western blotting for expression of NF-κB p65 at 72 hours post inhibition was quantified and normalized (IMAGE STUDIO software, LI-COR Biosciences, Inc., Lincoln, NE) using a total protein stain.

Experiment [2] has as its system NF-κB p65. In words: Western blot of NF-κB p65 expression in HSMM cells. Format: cell-based, human. As to conditions: increasing resveratrol 50 μM to 500 μM with 2.5×10^11 exosomes/mL PEP, 72 hours. How it is done:
Western blotting for expression of exosome markers was conducted in two different manners: traditional and Li-Cor. In the traditional method, equal amounts of protein were loaded into each lane and transferred to a PVDF membrane. The membranes were blocked in 5% nonfat dried milk diluted in TBST and incubated with primary antibodies against CD63, CD9, and Flotillin (Table 1). HIRP-conjugated secondary antibodies were used to incubate the membranes and were developed with enhanced chemiluminescence (AERSHAM, GE Healthcare, Chicago, TL). Loading was standardized to a GAPDH loading control. In the Li-Cor digital fluorescence method (Li-Cor Biosciences, Inc., Lincoln, NE), equal amounts of protein were loaded into each lane and transferred to a nitrocellulose membrane. The membranes were blocked in Li-Cor TBS Blocking Buffer and incubated with primary antibodies against NF-κB p65, and PD-L1. Secondary antibodies at 680 nm and 800 nm were used to fluorescently image the membranes using an imaging system (Odyssey CLx, Li-Cor Biosciences, Inc., Lincoln, NE). Digital fluorescent intensity was determined by IMAGE STUDIO software (Li-Cor Biosciences, Inc., Lincoln, NE) and loading was standardized by total protein stain (Li-Cor Biosciences, Inc., Lincoln, NE) for whole lane protein digital fluorescence and analyzed by EMPIRIA STUDIO software (Li-Cor Biosciences, Inc., Lincoln, NE). […]

In experiment [1] (Homo sapiens, Myoblast, 250 μM resveratrol, 2.5×10^11 exosomes/mL PEP, p<0.0001 vs PEP), `Oc1ccc(C=Cc2cc(O)cc(O)c2)cc1` [resveratrol] yielded an inhibition at 250 µM of around 50%. The inhibition at 500 µM in experiment [1] (Homo sapiens, Myoblast, 500 μM resveratrol, 2.5×10^11 exosomes/mL PEP, p<0.0001 vs PEP) was around 100%. The “inhibition of myoblast growth” value in experiment [1] (low doses of resveratrol (e.g., 50 μM), with PEP) is recorded as “not significantly inhibited”. The “NF-κB expression in PEP-treated HSMM following resveratrol treatment” value in experiment [2] is “dose dependent decrease”.
